Measurements: patent publication US6339045B1, “N-(unsubstituted or substituted)-4-substituted-6-(unsubstituted or substituted)phenoxy-2-pyridinecarboxamides or thiocarboxamides, processes for producing the same, and herbicides” (Kureha Kagaku Kogyo Kabushiki Kaisha, priority 1995, dated 2002)

Experiments:
Assay in all cases: Herbicidal effect by foliage and soil treatment
Assay type in all cases: in vivo
Conditions in all cases: 10 g ai/10a, evaluated after 14 days
[1] = tested on: sicklepod (Cassia obtusifolia)
Summary of the method: (§1)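 Greenhouse pot test at 19–25 °C: spray of aqueous Tween 20 formulation onto foliage and soil of seedlings at cotyledonal–bifoliate stage, dose per area predetermined. Scoring on a rating scale after 14 days versus untreated.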

[2] = tested on: cleavers (Galium aparine)
Summary of the method: as §1

[3] = tested on: ivyleafspeedwell (Veronica hederaefolia)
Summary of the method: as §1

[4] = tested on: redroot pigweed (Amaranthus retroflexus)
Summary of the method: as §1

[5] = tested on: kediock (Sinapis arvensis)
Summary of the method: as §1

[6] = tested on: field bindweed (Convolvulus arvensis)
Summary of the method: as §1

[7] = tested on: velvetleaf (Abutilon theophrasti)
Summary of the method: as §1

[8] = tested on: common blackjack (Bidens pilosa)
Summary of the method: as §1

[9] = tested on: common chickweed (Stellaria media)
Summary of the method: as §1

[10] = tested on: wild chamomile (Matricaria chamomilla)
Summary of the method: as §1

[11] = tested on: black nightshade (Solanum nigrum)
Summary of the method: as §1

SMILES	herbicidal activity rating, CO (Cassia obtusifolia) [1]	herbicidal activity rating, GA (Galium aparine) [2]	herbicidal activity rating, VH (Veronica hederaefolia) [3]	herbicidal activity rating, AR (Amaranthus retroflexus) [4]	herbicidal activity rating, SA (Sinapis arvensis) [5]	herbicidal activity rating, CA (Convolvulus arvensis) [6]	herbicidal activity rating, AT (Abutilon theophrasti) [7]	herbicidal activity rating, BP (Bidens pilosa) [8]	herbicidal activity rating, SM (Stellaria media) [9]	herbicidal activity rating, MC (Matricaria chamomilla) [10]	herbicidal activity rating, SN (Solanum nigrum) [11]
COc1cc(Oc2cccc(C(F)(F)F)c2)nc(C(=O)NCCSCC(F)(F)F)c1 [Compound I-94]	5 (percentage of weeds killed was not less than 80%)	5 (percentage of weeds killed was not less than 80%)	5 (percentage of weeds killed was not less than 80%)	5 (percentage of weeds killed was not less than 80%)	5 (percentage of weeds killed was not less than 80%)	5 (percentage of weeds killed was not less than 80%)	5 (percentage of weeds killed was not less than 80%)	4 (percentage of weeds killed was not less than 60% and less than 80%)	4 (percentage of weeds killed was not less than 60% and less than 80%)	4 (percentage of weeds killed was not less than 60% and less than 80%)	5 (percentage of weeds killed was not less than 80%)
COc1cc(Oc2cccc(C(F)(F)F)c2)nc(C(=O)NO)c1 [Compound I-96, N-hydroxy-4-methoxy-6-{3-(trifluoromethyl)phenoxy}-2-pyridine carboxamide]	5 (percentage of weeds killed was not less than 80%)	5 (percentage of weeds killed was not less than 80%)	5 (percentage of weeds killed was not less than 80%)	5 (percentage of weeds killed was not less than 80%)	5 (percentage of weeds killed was not less than 80%)	3 (percentage of weeds killed was not less than 40% and less than 60%)	3 (percentage of weeds killed was not less than 40% and less than 60%)	4 (percentage of weeds killed was not less than 60% and less than 80%)	5 (percentage of weeds killed was not less than 80%)	1 (percentage of weeds killed was less than 20%)	5 (percentage of weeds killed was not less than 80%)
CONC(=O)c1cc(OC)cc(Oc2cccc(C(F)(F)F)c2)n1 [Compound I-97, N-methoxy-4-methoxy-6-{3-(trifluoromethyl)phenoxy}-2-pyridine carboxamide]	5 (percentage of weeds killed was not less than 80%)	5 (percentage of weeds killed was not less than 80%)	5 (percentage of weeds killed was not less than 80%)	5 (percentage of weeds killed was not less than 80%)	5 (percentage of weeds killed was not less than 80%)	4 (percentage of weeds killed was not less than 60% and less than 80%)	5 (percentage of weeds killed was not less than 80%)	5 (percentage of weeds killed was not less than 80%)	5 (percentage of weeds killed was not less than 80%)	5 (percentage of weeds killed was not less than 80%)	5 (percentage of weeds killed was not less than 80%)
CCCONC(=O)c1cc(OC)cc(Oc2cccc(C(F)(F)F)c2)n1 [Compound I-99, N-(n-propoxy)-4-methoxy-6-{3-(trifluoromethyl)phenoxy}-2-pyridine carboxamide]	5 (percentage of weeds killed was not less than 80%)	5 (percentage of weeds killed was not less than 80%)	5 (percentage of weeds killed was not less than 80%)	5 (percentage of weeds killed was not less than 80%)	5 (percentage of weeds killed was not less than 80%)	5 (percentage of weeds killed was not less than 80%)	5 (percentage of weeds killed was not less than 80%)	5 (percentage of weeds killed was not less than 80%)	5 (percentage of weeds killed was not less than 80%)	4 (percentage of weeds killed was not less than 60% and less than 80%)	5 (percentage of weeds killed was not less than 80%)
C=CCONC(=O)c1cc(OC)cc(Oc2cccc(C(F)(F)F)c2)n1 [Compound I-100]	5 (percentage of weeds killed was not less than 80%)	5 (percentage of weeds killed was not less than 80%)	5 (percentage of weeds killed was not less than 80%)	5 (percentage of weeds killed was not less than 80%)	5 (percentage of weeds killed was not less than 80%)	4 (percentage of weeds killed was not less than 60% and less than 80%)	5 (percentage of weeds killed was not less than 80%)	4 (percentage of weeds killed was not less than 60% and less than 80%)	4 (percentage of weeds killed was not less than 60% and less than 80%)	4 (percentage of weeds killed was not less than 60% and less than 80%)	5 (percentage of weeds killed was not less than 80%)
COc1cc(Oc2cccc(C(F)(F)F)c2)nc(C(=O)NOCCF)c1 [Compound I-102]	5 (percentage of weeds killed was not less than 80%)	5 (percentage of weeds killed was not less than 80%)	5 (percentage of weeds killed was not less than 80%)	5 (percentage of weeds killed was not less than 80%)	5 (percentage of weeds killed was not less than 80%)	4 (percentage of weeds killed was not less than 60% and less than 80%)	4 (percentage of weeds killed was not less than 60% and less than 80%)	5 (percentage of weeds killed was not less than 80%)	4 (percentage of weeds killed was not less than 60% and less than 80%)	3 (percentage of weeds killed was not less than 40% and less than 60%)	5 (percentage of weeds killed was not less than 80%)
CCOCONC(=O)c1cc(OC)cc(Oc2cccc(C(F)(F)F)c2)n1 [Compound I-105]	5 (percentage of weeds killed was not less than 80%)	5 (percentage of weeds killed was not less than 80%)	5 (percentage of weeds killed was not less than 80%)	5 (percentage of weeds killed was not less than 80%)	5 (percentage of weeds killed was not less than 80%)	4 (percentage of weeds killed was not less than 60% and less than 80%)	4 (percentage of weeds killed was not less than 60% and less than 80%)	4 (percentage of weeds killed was not less than 60% and less than 80%)	4 (percentage of weeds killed was not less than 60% and less than 80%)	3 (percentage of weeds killed was not less than 40% and less than 60%)	5 (percentage of weeds killed was not less than 80%)
COc1cc(Oc2cccc(C(F)(F)F)c2)nc(C(=O)NOCC2CC2)c1 [Compound I-107]	5 (percentage of weeds killed was not less than 80%)	5 (percentage of weeds killed was not less than 80%)	5 (percentage of weeds killed was not less than 80%)	5 (percentage of weeds killed was not less than 80%)	5 (percentage of weeds killed was not less than 80%)	4 (percentage of weeds killed was not less than 60% and less than 80%)	4 (percentage of weeds killed was not less than 60% and less than 80%)	3 (percentage of weeds killed was not less than 40% and less than 60%)	5 (percentage of weeds killed was not less than 80%)	3 (percentage of weeds killed was not less than 40% and less than 60%)	5 (percentage of weeds killed was not less than 80%)
